Test results as given in ChEMBL document CHEMBL3045026, “Cytotoxic clerodane diterpenes from Glossocarya calcicola” (Phytochemistry, 2005).
Converted amounts (≈) assume the structure as drawn.

Assays:
HepG2 = assay: Cytotoxicity against Homo sapiens (human) HepG2 cells; format: functional, cell-based
[1] = Cytotoxicity against Drosophila melanogaster D.mel-2 cells; format: functional, cell-based

Which IC50 (HepG2) does the source give for `C=C1CC[C@@H](OC(=O)C(C)C)[C@H]2[C@@]1(C)[C@@H](O)C(=O)C(=C)[C@]2(C)C[C@@H](OC(=O)/C(C)=C/C)[C@]1(O)COC(=O)C1` (relative stereo) here?
Its IC50 is 2.06 mg/L (≈ 3.87 µM).

What about the IC50 [1] of the same molecule?
Its IC50 is 9.04 mg/L (≈ 17 µM).

For `C=C1CC[C@@H](OC(=O)C(C)CC)[C@H]2[C@@]1(C)[C@@H](O)C(=O)C(=C)[C@]2(C)C[C@@H](OC(=O)/C(C)=C/C)[C@]1(O)COC(=O)C1` (relative stereo), which IC50 (HepG2) is on record?
The IC50 was 2.1 mg/L (≈ 3.84 µM).

And the IC50 [1]?
The IC50 was 8.3 mg/L (≈ 15.2 µM).
